The target in the assay is NAD(P)H dehydrogenase [quinone] 1 (Homo sapiens, UniProt P15559).
Sequence of NAD(P)H dehydrogenase [quinone] 1 (P15559 whole entry): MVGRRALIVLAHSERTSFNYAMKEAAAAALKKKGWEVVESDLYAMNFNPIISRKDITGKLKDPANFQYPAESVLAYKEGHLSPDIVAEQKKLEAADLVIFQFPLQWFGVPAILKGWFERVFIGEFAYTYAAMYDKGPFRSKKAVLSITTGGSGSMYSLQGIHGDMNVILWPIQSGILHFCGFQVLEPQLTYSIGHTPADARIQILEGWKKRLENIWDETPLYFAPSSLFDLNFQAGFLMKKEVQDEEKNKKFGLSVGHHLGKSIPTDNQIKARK
Description: Inhibition of human recombinant NQO1
As to `Cn1c2cc(O)ccc2c2c3nc4ccccc4nc3cc(O)c21`, the IC50 – broadly, the point on the concentration scale where inhibition reaches its midpoint – was found to be 3 µM.

In turn, `O=C1c2ccccc2C(=O)c2c(O)c(NCCCN3CCOCC3)cc(O)c21` came in with a concentration for half-maximal inhibition (IC50) of 2 µM. With `CN(C)CCNc1ccc2ncn3c4ccc(O)cc4c(=O)c1c23`, the midpoint of inhibition, the IC50, lay at 10 µM. `CCOc1ccc(OCC)cc1` [1,4-DIETHOXYBENZENE] showed an IC50 of 3.5 µM. `O=C1c2ccccc2C(=O)c2c(O)c(NCCCN(CCO)CCO)cc(O)c21` showed an IC50 of 3 µM.

With `Cc1cc(=O)cc(C)o1`, it took 20 µM to reach half-maximal inhibition (IC50). `Nc1ccc(O)c2c1C(=O)c1c(O)c(S(=O)(=O)O)cc(N)c1C2=O` returned an IC50 of 7.5 µM. On to `COc1ccc2c(c1)-c1nn(CCCN(C)C)c3ccc([N+](=O)[O-])c(c13)N2` [PYRAZOLOACRIDINE], for which the IC50 was determined as 45 µM. As for `Cn1ncc2c(Cl)ncnc21`, it took 105 µM to reach half-maximal inhibition (IC50).

As for `CCOC(=O)C1=NN(c2ccccc2)C(=O)/C1=C\NC(=S)N/N=C1\C(=O)Nc2ccccc21`, the IC50 stood at 35 µM. Regarding `O=C1c2ccccc2C(=O)c2c(O)c(NCCCNCCO)cc(O)c21`, it took 17.5 µM to reach half-maximal inhibition (IC50). `O=[N+]([O-])c1ccc(N/N=C(\N=N\c2ccccc2)c2nc3ccccc3[nH]2)c([N+](=O)[O-])c1` had an IC50 of 35 µM. In the case of `COc1ccc(OC)c2cc3ccccc3cc12`, the midpoint of inhibition, the IC50, lay at 10 µM. Next, `Nc1nc2cc3nc(N)c(N)nc3cc2nc1N`: 25 µM; `C(=N\NC1=NCCN1)/c1c2ccccc2c(/C=N/NC2=NCCN2)c2ccccc12` [BISANTRENE]: 25 µM. Compound `CNC(=O)N(OC(N)=O)C(C)=O` returned an IC50 of 55 µM. `O=c1c2ccccc2c(=O)c2c1c(O)cc1[nH]c3ccccc3[nH]c12` returned an IC50 of 2 µM.

Source of the values: ChEMBL document CHEMBL1146169, “In silico identification and biochemical characterization of novel inhibitors of NQO1” (Bioorg Med Chem Lett, 2006).
